Values of other authors in patent US20020193323A1, “Compositions and methods for promoting a healthy cardiovascular system and enhancing blood flow” (priority 2000, published 2002).

Tests used:
[1] = in vivo
glutathione system = settings: selenium supplementation, through activation of the glutathione system

In the case of `CC1=C(/C=C/C(C)=C/C=C/C(C)=C/C=C/C=C(C)/C=C/C=C(C)/C=C/C2=C(C)CCCC2(C)C)C(C)(C)CCC1` [Beta-carotene], the “reduce risk of major coronary events” value [1] is given as 51%.
For `[Se]` [selenium], the “reduced lipid peroxidation levels” value (glutathione system) is given as 50%.
